Data taken from patent publication US8148392B2, “2-indolyl imidazo [4,5-d] phenanthroline derivatives and their use in the treatment of cancer” (Lorus Therapeutics Inc., priority 2005, dated 2012).
“Also recorded” adds a separate entry of the source.

Experiments:
KLF4 = KLF4 gene expression by RT-PCR, HT-29; type: cell-based, human; details: for KLF4 expression change with zinc supplement: HT-29, 1 μM compound plus 35 μM ZnCl2, 16 hr; for KLF4 gene expression, change: HT-29, 1 μM, in words; for KLF4 (gene fold increase): HT-29, relative to vehicle control as 1
Method: To determine whether compounds of Formula I can chelate zinc in cells, the effect of compound 3 on the expression level of a zinc-regulated gene, metallothionein 1A (MT1A), in human colon carcinoma HT-29 cells, was determined. HT-29 cells, 1×10^6 cells in 10 mL volume of the growth medium were seeded in 100 mm dishes and incubated overnight at 37° C. The medium was removed and replaced with the growth medium containing 35 μM ZnCl2, 1 μM or 4 μM TPEN (NNNN-tetrakis(2-pyridyl-methyl)ethylenediamine), or 1 μM or 4 μM compound 3, or 0.1% DMSO vehicle control. After incubation for 16 hours, the cells were detached by trypsinization, collected by centrifugation and washed once with PBS. Total RNA was extracted by using TRIZOL (Invitrogen, Life Technologies, Carlsbad, Calif.), following manufacturer's instruction, and the level of MT1A mRNA was measured by real time PCR using the comparative CT method as follows. First strand cDNA was synthesized from 200 ng total RNA in Biometra Tpersonal Thermal Cycler (Abgene, UK), using pd(N)6 random hexamer (Amersham Biosciences, Piscataway, N.J.) and SuperScript™ II Reverse Transcriptase kit (Invitrogen) by following manufacturer's protocol. Real-time PCR was performed in ABI Prism 7000 Sequence Detection System (Applied Biosystems Inc., ABI, Foster City, Calif.), using 5 μL of cDNA synthesized by above-mentioned procedure and respective TaqMan® Gene Expression Assays (ABI) by following ABI TaqMan® Universal PCR master mix protocol.
The ability of compounds of Formula I to modulate the mRNA level of a transition metal-regulated tumour suppressor gene was determined in vitro as follows. Compound 3 was tested to determine its ability to increase the expression of zinc-regulated tumour suppressor KLF4 mRNA in colon carcinoma HT-29 cells. […] HT-29 cells were incubated for 16 hours with DMSO as a vehicle control, 35 μM ZnCl2, 1 μM or 4 μM of compound 3, or 1 μM or 4 μM TPEN for 16 hours and mRNA was extracted from the cells as described in Example 19. The expression of KLF4 mRNA was analyzed by real-time polymerase chain reaction using the comparative CT method also as described in Example 19. Compound 3 induced the expression of KLF4 mRNA (approximately 8-fold) in HT-29 cells compared with HT-29 cells treated with vehicle alone (See FIG. 8).
Gene expression levels of KLF4, induced by compounds of Formula I, were also examined on various cancer cell types by RT-PCR. Fold changes in KLF4 in compound-treated cells were expressed relative to KLF4 expression in vehicle control-treated cells of respective cell type as “1”. […] Additionally, xenografts of MDA-MB-435 implanted into mammary fat pads of female SCID mice have shown immunohistochemical staining consistent with melanocytic origin (Ellison G, Klinowska T, Westwood R F, Docter E, French T, Fox J C. (2002) Mol Pathol. 55(5): 294-299). The breast cancer cell line MDA-MB-435 may be expected to function differently than the other breast cancer cell lines.
The change in gene expression of KLF4 upon zinc depletion following compound 3 treatment was determined by RT-PCR as follows. HT-29 cells were treated with 1 μM compound 3 for the indicated time (FIG. 39A) or HT-29 cells were treated with 1 μM compound 3, 35 μM ZnCl2 or compund 3 and ZnCl2 together for 16 hr (FIG. 39B). Total RNA was extracted and gene expression level was determined by RT-PCR.
Fold change in KLF4 gene expression was presented relative to KLF4 expression in non-specific siRNA-transfected cells treated with vehicle control.

Cyclin D1 = Cyclin D1 mRNA in HT-29 tumour xenografts, RT-PCR; type: in vivo, CD-1 female nude mice; details: HT-29 xenograft, versus vehicle
Method: The ability of compound 3 to modulate expression of Cyclin D1 was determined using the HT-29 colon tumour xenograft model as described in Example 26. The expression of Cyclin D1 mRNA was analyzed by real-time polymerase chain reaction as described in Example 30. […] The results of this experiment combined with the results described for the effect of compound 3 in vivo on KLF4 and P21 expression as described in Examples 30 and 31 are shown in FIG. 20.
Correlation between zinc-sensitive transcription factor MTF-1 and a cell cycle regulator Cyclin D1 expression in HT-29 colon cancer xenograft tissues is shown in FIG. 30. Based on the presence of putative MTF-1-binding DNA sequences in Cyclin D1 gene promoter region (shown in FIG. 30A), expression levels of MTF-1 and Cyclin D1 in xenograft tissues were examined by RT-PCR, using tissue RNA extract.
To examine the effect of compound 3-mediated changes in KLF4 and Cyclin D1 expressions in vivo, the expressions of respective genes in xenograft tissues of vehicle control (Lutrol) and compound 3-treated HT-29 colon cancer cell-transplanted mice were analyzed by RT-PCR (FIG. 46). Briefly, KLF4 and Cyclin D1 gene expression in HT-29 xenograft tissues after 14 days treatment with compound 3 was measured as follows. The mice subcutaneously transplanted with HT-29 cells were treated with vehicle control (administerd i.p.) or 100 mg/kg compound 3 (administered i.p.) for 14 days (n=6 in each group). Total RNA was extracted and gene expression level was determined by RT-PCR. KLF4 and Cyclin D1 gene expressions were normalized with β-actin gene expression in the same sample. […]
The tumor regression efficacy of compound 3 was assessed in compound 3-treated HT-29-transplanted athymic mice (FIG. 54A), and correlated with gene expressions of MTF-1, KLF4 and Cyclin D1 in HT-29 xenograft tissues (FIG. 54B). […] The tumor size was measured during the course of treatment using calipers (FIG. 54A). […] The tumor tissues were excised, frozen immediately and stored at −80° C. until RNA extraction and gene expression was analyzed by RT-PCR (FIG. 54B). […]

Compound | KLF4 expression change with zinc supplement (KLF4) | KLF4 gene expression, change (KLF4) | induction of KLF4 mRNA (KLF4; HT-29, 16 hours, 1 μM or 4 μM, versus vehicle) | KLF4 (gene fold increase) (KLF4) | KLF4 gene expression after MTF-1 gene knock-down by siRNA (KLF4; HT-29 transfected with MTF-1 siRNA) | Cyclin D1 expression in tumour xenografts (Cyclin D1) | Cyclin D1 expression in tumour xenografts (Cyclin D1; listed as compound 3)
Cc1[nH]c2ccccc2c1-c1nc2c3cccnc3c3ncccc3c2[nH]1 [Compound 3] | reversed by addition of zinc supplement | Time-dependent increase in KLF4; also recorded: increased expression of KLF4 | approximately 8 fold | 6.5 fold | still increased | consistently reduced the expression of Cyclin D1 | decreased Cyclin D1 expression; also recorded: decrease in MTF-1 and Cyclin D1 gene expressions
Cc1[nH]c2ccc(F)cc2c1-c1nc2c3cccnc3c3ncccc3c2[nH]1 [Compound 7] | reversed by addition of zinc supplement | increased expression of KLF4 |  | 8.66 fold |  | decreased Cyclin D1 expression | 
CCc1cccc2c(-c3nc4c5cccnc5c5ncccc5c4[nH]3)c(C(C)(C)C)[nH]c12 [Compound 64] | reversed by addition of zinc supplement | increased expression of KLF4 |  | 5.96 fold |  |  | 
